# Measured values: PubChem BioAssay (NCI)
#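 In this assay, cells in 96-well plates receive the compound at five concentrations for 48 hours. Endpoints are linearly interpolated between the surrounding concentrations. At the GI50, growth is halved. At the TGI there is no net growth.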
# Columns and labels:
# Assay in all cases: DTP human tumour cell line panel, 48 h
# SN12C renal = test system: SN12C renal
# COLO 205 colon = test system: COLO 205 colon
# UACC-62 melanoma = test system: UACC-62 melanoma
# SNB-75 CNS = test system: SNB-75 CNS
# EKVX NSCLC = test system: EKVX NSCLC
# A498 renal = test system: A498 renal
# OVCAR-4 ovarian = test system: OVCAR-4 ovarian
# MDA-MB-231 breast = test system: MDA-MB-231 breast
# SW-620 colon = test system: SW-620 colon
# CCRF-CEM leukemia = test system: CCRF-CEM leukemia
# U251 CNS = test system: U251 CNS
# UACC-257 melanoma = test system: UACC-257 melanoma
# HCT-15 colon = test system: HCT-15 colon
# NCI-H23 lung = test system: NCI-H23 lung
# SK-MEL-28 melanoma = test system: SK-MEL-28 melanoma
# RPMI-8226 leukemia = test system: RPMI-8226 leukemia
# BT-549 breast = test system: BT-549 breast
# KM12 colon = test system: KM12 colon
# MDA-MB-468 breast = test system: MDA-MB-468 breast
# PC-3 prostate = test system: PC-3 prostate
# SK-OV-3 ovarian = test system: SK-OV-3 ovarian
# TK-10 renal = test system: TK-10 renal
# SNB-19 CNS = test system: SNB-19 CNS
# HOP-92 NSCLC = test system: HOP-92 NSCLC
# NCI-H226 lung = test system: NCI-H226 lung
# OVCAR-3 ovarian = test system: OVCAR-3 ovarian
# A549 NSCLC = test system: A549 NSCLC
# SF-539 CNS = test system: SF-539 CNS
# LOX IMVI melanoma = test system: LOX IMVI melanoma
# 786-0 renal = test system: 786-0 renal
# SK-MEL-2 melanoma = test system: SK-MEL-2 melanoma
# DU-145 prostate = test system: DU-145 prostate
# SF-268 CNS = test system: SF-268 CNS
# SF-295 CNS = test system: SF-295 CNS
# HCT-116 colon = test system: HCT-116 colon
# NCI-H522 lung = test system: NCI-H522 lung
# K-562 leukemia = test system: K-562 leukemia
# HT29 colon = test system: HT29 colon
# HCC-2998 colon = test system: HCC-2998 colon
# T-47D breast = test system: T-47D breast
# MOLT-4 leukemia = test system: MOLT-4 leukemia
# IGROV1 ovarian = test system: IGROV1 ovarian
# M14 melanoma = test system: M14 melanoma
# HS 578T breast = test system: HS 578T breast
# HL-60(TB) leukemia = test system: HL-60(TB) leukemia
# CAKI-1 renal = test system: CAKI-1 renal
# MALME-3M melanoma = test system: MALME-3M melanoma
# SK-MEL-5 melanoma = test system: SK-MEL-5 melanoma
# OVCAR-5 ovarian = test system: OVCAR-5 ovarian
# SR leukemia = test system: SR leukemia
# RXF 393 renal = test system: RXF 393 renal
# UO-31 renal = test system: UO-31 renal
# ACHN renal = test system: ACHN renal
# NCI-H460 lung = test system: NCI-H460 lung
# HOP-62 NSCLC = test system: HOP-62 NSCLC
# MCF7 breast = test system: MCF7 breast
# MDA-MB-435 = test system: MDA-MB-435
# OVCAR-8 ovarian = test system: OVCAR-8 ovarian
structure (smiles),measurement,setting,value
O=C1Nc2cc(Cl)ccc2/C1=C/c1cccc(OCc2ccccn2)c1,GI50,SN12C renal,6.38 µM
same,TGI,SN12C renal,26.1 µM
same,GI50,COLO 205 colon,10.5 µM
same,TGI,COLO 205 colon,22.2 µM
same,GI50,UACC-62 melanoma,2.7 µM
same,TGI,UACC-62 melanoma,13.9 µM
same,GI50,SNB-75 CNS,3.05 µM
same,TGI,SNB-75 CNS,38.8 µM
same,GI50,EKVX NSCLC,5.41 µM
same,TGI,EKVX NSCLC,67.4 µM
same,GI50,A498 renal,22.1 µM
same,TGI,A498 renal,76.9 µM
same,GI50,OVCAR-4 ovarian,5.73 µM
same,TGI,OVCAR-4 ovarian,35.5 µM
same,GI50,MDA-MB-231 breast,2.46 µM
same,TGI,MDA-MB-231 breast,9.13 µM
same,GI50,SW-620 colon,3.1 µM
same,TGI,SW-620 colon,14.3 µM
same,GI50,CCRF-CEM leukemia,3.1 µM
same,TGI,CCRF-CEM leukemia,> 100 µM
same,GI50,U251 CNS,4.21 µM
same,TGI,U251 CNS,15.4 µM
same,GI50,UACC-257 melanoma,7.63 µM
same,TGI,UACC-257 melanoma,> 100 µM
same,GI50,HCT-15 colon,2.71 µM
same,TGI,HCT-15 colon,16.1 µM
same,GI50,NCI-H23 lung,3.39 µM
same,TGI,NCI-H23 lung,16 µM
same,GI50,SK-MEL-28 melanoma,5.66 µM
same,TGI,SK-MEL-28 melanoma,32.3 µM
same,GI50,RPMI-8226 leukemia,2.93 µM
same,TGI,RPMI-8226 leukemia,40.3 µM
same,GI50,BT-549 breast,3.92 µM
same,TGI,BT-549 breast,16.5 µM
same,GI50,KM12 colon,3.77 µM
same,TGI,KM12 colon,87.4 µM
same,GI50,MDA-MB-468 breast,2.54 µM
same,TGI,MDA-MB-468 breast,9.08 µM
same,GI50,PC-3 prostate,5.52 µM
same,TGI,PC-3 prostate,> 100 µM
same,GI50,SK-OV-3 ovarian,10.3 µM
same,TGI,SK-OV-3 ovarian,26.8 µM
same,GI50,TK-10 renal,15.4 µM
same,TGI,TK-10 renal,34.7 µM
same,GI50,SNB-19 CNS,11 µM
same,TGI,SNB-19 CNS,27.8 µM
same,GI50,HOP-92 NSCLC,1.85 µM
same,TGI,HOP-92 NSCLC,8.15 µM
same,GI50,NCI-H226 lung,11.3 µM
same,TGI,NCI-H226 lung,70.4 µM
same,GI50,OVCAR-3 ovarian,3.33 µM
same,TGI,OVCAR-3 ovarian,16.2 µM
same,GI50,A549 NSCLC,13 µM
same,TGI,A549 NSCLC,62.2 µM
same,GI50,SF-539 CNS,2.63 µM
same,TGI,SF-539 CNS,8.05 µM
same,GI50,LOX IMVI melanoma,2.06 µM
same,TGI,LOX IMVI melanoma,4.92 µM
same,GI50,786-0 renal,14 µM
same,TGI,786-0 renal,28.9 µM
same,GI50,SK-MEL-2 melanoma,2.9 µM
same,TGI,SK-MEL-2 melanoma,9.3 µM
same,GI50,DU-145 prostate,10.7 µM
same,TGI,DU-145 prostate,> 100 µM
same,GI50,SF-268 CNS,4.82 µM
same,TGI,SF-268 CNS,> 100 µM
same,GI50,SF-295 CNS,5.69 µM
same,TGI,SF-295 CNS,25 µM
same,GI50,HCT-116 colon,3.07 µM
same,TGI,HCT-116 colon,10.5 µM
same,GI50,NCI-H522 lung,2.43 µM
same,TGI,NCI-H522 lung,6.63 µM
same,GI50,K-562 leukemia,2.82 µM
same,TGI,K-562 leukemia,> 100 µM
same,GI50,HT29 colon,4.47 µM
same,TGI,HT29 colon,19.4 µM
same,GI50,HCC-2998 colon,11.4 µM
same,TGI,HCC-2998 colon,26.2 µM
same,GI50,T-47D breast,3.01 µM
same,TGI,T-47D breast,22.6 µM
same,GI50,MOLT-4 leukemia,3.02 µM
same,TGI,MOLT-4 leukemia,11.3 µM
same,GI50,IGROV1 ovarian,3.89 µM
same,TGI,IGROV1 ovarian,22.9 µM
same,GI50,M14 melanoma,4.43 µM
same,TGI,M14 melanoma,16.8 µM
same,GI50,HS 578T breast,2.01 µM
same,TGI,HS 578T breast,6.72 µM
same,GI50,HL-60(TB) leukemia,2.13 µM
same,TGI,HL-60(TB) leukemia,5.1 µM
same,GI50,CAKI-1 renal,2.73 µM
same,TGI,CAKI-1 renal,14.1 µM
same,GI50,MALME-3M melanoma,4.23 µM
same,TGI,MALME-3M melanoma,46.6 µM
same,GI50,SK-MEL-5 melanoma,2.81 µM
same,TGI,SK-MEL-5 melanoma,13.4 µM
same,GI50,OVCAR-5 ovarian,7.62 µM
same,TGI,OVCAR-5 ovarian,26.8 µM
same,GI50,SR leukemia,2.58 µM
same,TGI,SR leukemia,10.3 µM
same,GI50,RXF 393 renal,3.08 µM
same,TGI,RXF 393 renal,14.5 µM
same,GI50,UO-31 renal,3.03 µM
same,TGI,UO-31 renal,25 µM
same,GI50,ACHN renal,6.07 µM
same,TGI,ACHN renal,19.9 µM
same,GI50,NCI-H460 lung,3.15 µM
same,TGI,NCI-H460 lung,12.3 µM
same,GI50,HOP-62 NSCLC,6.95 µM
same,TGI,HOP-62 NSCLC,25 µM
same,GI50,MCF7 breast,1.93 µM
same,TGI,MCF7 breast,11.4 µM
same,GI50,MDA-MB-435,1.92 µM
same,TGI,MDA-MB-435,4.25 µM
same,GI50,OVCAR-8 ovarian,3.79 µM
same,TGI,OVCAR-8 ovarian,16.3 µM
